We go through 1 compound from paper PMC6704710, “Preclinical evaluation of 3D185, a novel potent inhibitor of FGFR1/2/3 and CSF-1R, in FGFR-dependent and macrophage-dominant cancer models” (Journal of Experimental & Clinical Cancer Research : CR, 2019).

What all share (assay): Eurofins kinase panel
Format in all cases: biochemical
What all share (conditions): read-out: Inhibition rate (%)

The target in experiment [1] is T1, Rsk3(h) (Homo sapiens, UniProt Q15349).
T1 construct: purchased Eurofins (KinaseProfiler)
T1 sequence (Q15349 whole entry): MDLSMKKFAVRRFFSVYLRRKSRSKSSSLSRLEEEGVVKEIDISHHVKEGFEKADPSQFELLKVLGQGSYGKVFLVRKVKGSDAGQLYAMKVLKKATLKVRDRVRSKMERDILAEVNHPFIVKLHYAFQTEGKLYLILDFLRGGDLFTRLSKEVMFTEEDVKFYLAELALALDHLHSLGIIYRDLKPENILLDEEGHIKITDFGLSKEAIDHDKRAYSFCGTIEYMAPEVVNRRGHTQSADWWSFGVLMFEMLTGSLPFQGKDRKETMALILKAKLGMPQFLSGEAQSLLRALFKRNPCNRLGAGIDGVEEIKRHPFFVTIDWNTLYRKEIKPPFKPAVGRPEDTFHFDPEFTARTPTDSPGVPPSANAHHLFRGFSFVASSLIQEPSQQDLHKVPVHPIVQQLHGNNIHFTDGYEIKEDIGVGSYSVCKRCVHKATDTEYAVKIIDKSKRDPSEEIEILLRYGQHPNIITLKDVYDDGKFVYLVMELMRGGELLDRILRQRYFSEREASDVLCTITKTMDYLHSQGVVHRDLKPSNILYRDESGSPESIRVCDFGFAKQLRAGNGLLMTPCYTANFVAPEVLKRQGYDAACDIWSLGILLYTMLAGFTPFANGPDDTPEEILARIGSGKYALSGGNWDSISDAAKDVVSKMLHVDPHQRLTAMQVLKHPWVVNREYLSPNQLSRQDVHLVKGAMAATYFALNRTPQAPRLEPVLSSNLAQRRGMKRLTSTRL

In experiment [2] the target is T2, KDR(h) (Homo sapiens, UniProt P35968).
T2 construct: purchased Eurofins (KinaseProfiler)
T2 sequence (P35968 20-1356): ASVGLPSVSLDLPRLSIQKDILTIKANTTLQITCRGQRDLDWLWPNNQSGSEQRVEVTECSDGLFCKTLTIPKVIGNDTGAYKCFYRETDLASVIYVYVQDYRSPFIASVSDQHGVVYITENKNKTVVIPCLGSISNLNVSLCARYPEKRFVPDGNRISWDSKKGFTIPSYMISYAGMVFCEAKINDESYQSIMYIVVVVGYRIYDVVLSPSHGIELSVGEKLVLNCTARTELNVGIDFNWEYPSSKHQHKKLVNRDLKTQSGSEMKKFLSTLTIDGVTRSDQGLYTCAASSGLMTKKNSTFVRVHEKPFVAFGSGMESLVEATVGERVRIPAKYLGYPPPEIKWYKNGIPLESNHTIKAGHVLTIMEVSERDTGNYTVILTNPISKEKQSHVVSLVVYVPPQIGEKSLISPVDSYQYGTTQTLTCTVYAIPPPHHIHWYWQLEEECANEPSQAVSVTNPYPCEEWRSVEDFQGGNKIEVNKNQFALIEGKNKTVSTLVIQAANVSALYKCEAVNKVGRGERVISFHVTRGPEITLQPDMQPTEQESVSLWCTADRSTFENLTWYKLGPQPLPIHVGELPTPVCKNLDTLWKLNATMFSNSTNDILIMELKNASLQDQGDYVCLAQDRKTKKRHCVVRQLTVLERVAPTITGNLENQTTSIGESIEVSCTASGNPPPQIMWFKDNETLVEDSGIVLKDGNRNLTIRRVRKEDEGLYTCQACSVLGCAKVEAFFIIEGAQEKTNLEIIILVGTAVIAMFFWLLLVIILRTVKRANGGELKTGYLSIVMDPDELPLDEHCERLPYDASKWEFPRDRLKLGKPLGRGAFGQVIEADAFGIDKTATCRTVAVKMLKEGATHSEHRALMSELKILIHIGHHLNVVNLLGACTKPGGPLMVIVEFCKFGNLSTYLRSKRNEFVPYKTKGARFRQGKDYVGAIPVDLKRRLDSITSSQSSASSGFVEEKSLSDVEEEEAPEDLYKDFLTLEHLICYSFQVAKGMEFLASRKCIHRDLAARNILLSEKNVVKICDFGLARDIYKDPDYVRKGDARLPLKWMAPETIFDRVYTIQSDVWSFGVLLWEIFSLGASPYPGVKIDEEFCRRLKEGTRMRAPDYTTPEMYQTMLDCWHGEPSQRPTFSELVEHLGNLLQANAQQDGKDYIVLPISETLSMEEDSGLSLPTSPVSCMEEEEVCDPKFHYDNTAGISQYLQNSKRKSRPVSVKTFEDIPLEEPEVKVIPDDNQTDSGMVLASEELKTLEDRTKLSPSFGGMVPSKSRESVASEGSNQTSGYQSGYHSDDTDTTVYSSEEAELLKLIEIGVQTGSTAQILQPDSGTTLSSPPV

For experiment [3], the target named is T3, IKKβ(h) (Homo sapiens, UniProt O14920).
T3 construct: purchased Eurofins (KinaseProfiler)
T3 sequence (O14920 1-756): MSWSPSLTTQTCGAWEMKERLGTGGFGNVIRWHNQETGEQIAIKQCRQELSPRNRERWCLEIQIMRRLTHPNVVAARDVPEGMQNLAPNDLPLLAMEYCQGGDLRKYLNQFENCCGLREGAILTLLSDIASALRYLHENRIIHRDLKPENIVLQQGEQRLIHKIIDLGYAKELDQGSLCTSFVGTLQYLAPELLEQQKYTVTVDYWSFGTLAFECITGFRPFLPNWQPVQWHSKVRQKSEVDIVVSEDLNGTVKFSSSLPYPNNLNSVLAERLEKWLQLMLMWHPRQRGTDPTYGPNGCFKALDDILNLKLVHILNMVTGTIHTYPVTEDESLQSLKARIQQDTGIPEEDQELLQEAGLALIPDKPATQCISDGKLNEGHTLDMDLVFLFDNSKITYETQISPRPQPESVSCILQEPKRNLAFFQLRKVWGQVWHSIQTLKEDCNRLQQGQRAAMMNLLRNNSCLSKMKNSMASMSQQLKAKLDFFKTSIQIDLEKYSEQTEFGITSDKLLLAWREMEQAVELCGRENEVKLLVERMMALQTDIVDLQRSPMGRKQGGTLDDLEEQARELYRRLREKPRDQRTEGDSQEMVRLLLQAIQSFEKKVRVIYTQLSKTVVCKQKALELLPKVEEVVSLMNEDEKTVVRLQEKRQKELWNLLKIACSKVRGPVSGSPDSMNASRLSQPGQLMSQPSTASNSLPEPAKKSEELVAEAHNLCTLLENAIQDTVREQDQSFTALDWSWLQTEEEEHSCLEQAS

Experiment [4] concerns the target T4, Syk(h) (Homo sapiens, UniProt P43405).
T4 construct: purchased Eurofins (KinaseProfiler)

In experiment [5] the target is T5, PRK2(h) (Homo sapiens, UniProt Q16513).
T5 construct: purchased Eurofins (KinaseProfiler)
T5 sequence (Q16513 whole entry): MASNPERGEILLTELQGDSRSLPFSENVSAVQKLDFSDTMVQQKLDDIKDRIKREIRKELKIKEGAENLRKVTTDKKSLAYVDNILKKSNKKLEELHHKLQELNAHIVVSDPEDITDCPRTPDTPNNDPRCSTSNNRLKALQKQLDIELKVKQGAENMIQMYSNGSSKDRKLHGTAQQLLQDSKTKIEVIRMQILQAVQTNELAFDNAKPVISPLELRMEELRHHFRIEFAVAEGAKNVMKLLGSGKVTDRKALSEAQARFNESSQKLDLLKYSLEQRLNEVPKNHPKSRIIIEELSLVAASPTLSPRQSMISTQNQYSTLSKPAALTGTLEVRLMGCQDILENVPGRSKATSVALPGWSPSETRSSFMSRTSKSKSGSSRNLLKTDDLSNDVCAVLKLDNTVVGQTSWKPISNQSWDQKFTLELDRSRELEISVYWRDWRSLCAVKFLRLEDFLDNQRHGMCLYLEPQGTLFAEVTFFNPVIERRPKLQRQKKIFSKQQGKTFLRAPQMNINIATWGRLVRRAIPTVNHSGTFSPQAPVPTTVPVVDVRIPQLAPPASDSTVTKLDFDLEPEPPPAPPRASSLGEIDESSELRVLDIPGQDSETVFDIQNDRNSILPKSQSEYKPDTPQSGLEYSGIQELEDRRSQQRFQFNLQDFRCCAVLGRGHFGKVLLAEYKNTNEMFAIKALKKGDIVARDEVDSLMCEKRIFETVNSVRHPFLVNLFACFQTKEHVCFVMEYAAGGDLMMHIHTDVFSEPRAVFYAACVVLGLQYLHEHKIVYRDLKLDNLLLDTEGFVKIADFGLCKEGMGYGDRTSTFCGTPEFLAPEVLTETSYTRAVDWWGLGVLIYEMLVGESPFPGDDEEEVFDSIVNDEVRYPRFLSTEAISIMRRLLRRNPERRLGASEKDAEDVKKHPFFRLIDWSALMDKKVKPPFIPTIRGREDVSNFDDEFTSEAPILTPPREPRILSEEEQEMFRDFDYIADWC

Experiment [6] has as its target T6, PKD3(h) (Homo sapiens, UniProt O94806).
T6 construct: purchased Eurofins (KinaseProfiler)
T6 sequence (O94806 1-890): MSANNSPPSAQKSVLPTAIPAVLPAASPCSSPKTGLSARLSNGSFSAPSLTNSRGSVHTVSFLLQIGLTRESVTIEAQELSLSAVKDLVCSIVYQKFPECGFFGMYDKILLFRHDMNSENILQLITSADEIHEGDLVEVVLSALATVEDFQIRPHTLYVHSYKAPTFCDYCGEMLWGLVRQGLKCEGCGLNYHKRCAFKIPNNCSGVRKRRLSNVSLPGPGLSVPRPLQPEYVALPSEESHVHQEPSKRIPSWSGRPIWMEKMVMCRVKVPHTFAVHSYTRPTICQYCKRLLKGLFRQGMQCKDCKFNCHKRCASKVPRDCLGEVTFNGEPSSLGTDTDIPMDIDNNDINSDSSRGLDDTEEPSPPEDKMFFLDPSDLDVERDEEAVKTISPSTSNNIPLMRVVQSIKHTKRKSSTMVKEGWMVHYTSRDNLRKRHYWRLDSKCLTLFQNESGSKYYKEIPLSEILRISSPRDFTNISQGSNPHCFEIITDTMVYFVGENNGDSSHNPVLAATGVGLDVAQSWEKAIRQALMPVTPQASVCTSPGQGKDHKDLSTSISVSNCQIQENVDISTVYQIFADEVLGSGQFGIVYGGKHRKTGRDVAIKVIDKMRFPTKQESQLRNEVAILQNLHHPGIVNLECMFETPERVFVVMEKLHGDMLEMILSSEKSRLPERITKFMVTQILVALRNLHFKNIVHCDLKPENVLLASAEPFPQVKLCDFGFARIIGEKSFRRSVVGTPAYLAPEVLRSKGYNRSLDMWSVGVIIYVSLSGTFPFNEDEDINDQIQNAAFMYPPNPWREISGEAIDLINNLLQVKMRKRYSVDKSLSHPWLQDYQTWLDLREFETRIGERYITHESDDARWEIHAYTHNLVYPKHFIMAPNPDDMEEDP

In experiment [7] the target is T7, JAK2(h) (Homo sapiens, UniProt O60674).
T7 construct: purchased Eurofins (KinaseProfiler)
T7 sequence (O60674 whole entry): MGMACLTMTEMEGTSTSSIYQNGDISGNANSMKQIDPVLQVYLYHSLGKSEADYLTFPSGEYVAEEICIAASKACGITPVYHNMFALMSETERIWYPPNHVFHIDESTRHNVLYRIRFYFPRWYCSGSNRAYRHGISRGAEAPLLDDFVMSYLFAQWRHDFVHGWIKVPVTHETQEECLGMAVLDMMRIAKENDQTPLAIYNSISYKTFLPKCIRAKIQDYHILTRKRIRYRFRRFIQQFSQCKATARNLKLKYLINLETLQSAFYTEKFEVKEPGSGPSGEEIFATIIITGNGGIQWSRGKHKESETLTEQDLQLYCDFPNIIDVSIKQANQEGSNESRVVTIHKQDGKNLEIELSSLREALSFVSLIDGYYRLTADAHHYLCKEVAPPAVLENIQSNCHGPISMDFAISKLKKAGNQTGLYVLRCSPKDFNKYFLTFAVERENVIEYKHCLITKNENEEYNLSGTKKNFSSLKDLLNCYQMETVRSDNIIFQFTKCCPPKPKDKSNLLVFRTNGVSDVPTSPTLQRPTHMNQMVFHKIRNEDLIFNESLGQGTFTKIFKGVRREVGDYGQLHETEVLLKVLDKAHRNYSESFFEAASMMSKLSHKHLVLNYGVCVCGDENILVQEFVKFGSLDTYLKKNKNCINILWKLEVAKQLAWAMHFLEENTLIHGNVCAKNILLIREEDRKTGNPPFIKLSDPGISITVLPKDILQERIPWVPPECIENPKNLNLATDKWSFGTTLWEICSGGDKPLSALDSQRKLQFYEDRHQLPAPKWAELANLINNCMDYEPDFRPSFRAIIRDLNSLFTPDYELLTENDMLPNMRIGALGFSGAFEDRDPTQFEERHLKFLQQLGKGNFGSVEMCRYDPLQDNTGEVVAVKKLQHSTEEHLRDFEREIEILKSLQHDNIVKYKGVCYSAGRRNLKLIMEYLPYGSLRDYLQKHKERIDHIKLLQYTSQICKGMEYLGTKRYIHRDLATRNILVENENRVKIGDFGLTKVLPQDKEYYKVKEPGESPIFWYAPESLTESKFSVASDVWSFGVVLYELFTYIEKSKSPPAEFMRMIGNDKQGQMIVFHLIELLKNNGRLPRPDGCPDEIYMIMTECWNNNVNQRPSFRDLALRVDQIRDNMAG

Experiment [8] concerns the target T8, PrKX(h) (Homo sapiens, UniProt P51817).
T8 construct: purchased Eurofins (KinaseProfiler)
T8 sequence (P51817 1-358): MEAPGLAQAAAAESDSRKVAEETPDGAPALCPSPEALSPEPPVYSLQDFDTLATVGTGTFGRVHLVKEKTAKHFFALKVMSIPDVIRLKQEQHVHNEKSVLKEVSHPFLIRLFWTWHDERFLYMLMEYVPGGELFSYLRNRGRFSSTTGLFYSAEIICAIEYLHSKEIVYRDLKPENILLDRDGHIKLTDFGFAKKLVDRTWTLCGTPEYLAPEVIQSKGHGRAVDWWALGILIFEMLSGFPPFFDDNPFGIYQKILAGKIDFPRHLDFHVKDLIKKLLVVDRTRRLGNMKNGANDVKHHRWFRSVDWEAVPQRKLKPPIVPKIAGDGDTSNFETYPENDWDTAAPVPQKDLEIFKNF

As usually defined, the inhibition is the drop in the measured response relative to a control, in per cent.

On to `COc1cc(OC)c(Cl)c(-c2ccc3c(NC(=O)c4ccc(N5CCNC(C)(C)C5)cc4)n[nH]c3n2)c1Cl` [3D185], for which the inhibition at 0.01 µM in experiment [1] (10 nM) was -17%; in experiment [2] (10 nM), -2%; in experiment [3] (10 nM) it was 0%; in experiment [4] (10 nM), -3%; in experiment [5] (10 nM), 12%; in experiment [6] (10 nM), -3%. Besides, the inhibition at 0.01 µM in experiment [7] (10 nM) was -14%; in experiment [8] (10 nM) it was 8%. Besides, the inhibition at 0.1 µM is -19% in experiment [1] (100 nM); 1% in experiment [2] (100 nM); -5% in experiment [3] (100 nM); -5% in experiment [4] (100 nM); 4% in experiment [5] (100 nM); -2% in experiment [6] (100 nM). Moreover, the inhibition at 0.1 µM in experiment [7] (100 nM) stood at 5%; in experiment [8] (100 nM), 11%. Besides, the inhibition at 1 µM is -15% in experiment [1] (1000 nM); 10% in experiment [2] (1000 nM); 15% in experiment [3] (1000 nM); 20% in experiment [4] (1000 nM); 3% in experiment [5] (1000 nM); 11% in experiment [6] (1000 nM). Further, the inhibition at 1 µM in experiment [7] (1000 nM) stood at 6%; in experiment [8] (1000 nM), 5%.
